Article PMC10449621, “Engineering cellular communication between light-activated synthetic cells and bacteria” (Nature Chemical Biology, 2023)
Where “and” joins values, the source holds several entries; their conditions need not be identical. Identical values can stand only once. Entries after “also recorded” stand apart in the source; their conditions may differ.

Legend:
[1] = system: BjaRS107R (B0033|ATG) receiver cells; assay: BjaR receiver cell AHSL dose-response (gfp reporter, plate reader); type: cell-based, E. coli XL10-Gold
Excerpt: (§1) These findings are consistent with the predicted translation initiation rates of the respective sequences—translation from the BBa_B0033 RBS provides 1% of protein yield compared to the BBa_B0034 RBS, just as an CTG start codon provides 1% of the protein yield compared to an ATG start codon[30],[31]. This also offers support as to why the ON-state gfp expression level increased in variants with a tighter OFF-state; more cellular resources were available for GFP synthesis when comparatively fewer were allocated to BjaR synthesis. To elucidate the impact of the S107R variant on gene circuit performance, we introduced the S107R variant alone back into the bjaRWT gene, in the context of the BBa_B0033 RBS background.
(§2) In addition to quantifying how these BjaR receiver cells responded to their branched, cognate ligand, we also sought to determine whether the BjaR receiver cells could be activated by structurally dissimilar AHSLs involved in the LuxI/R, EsaI/R, LasI/R and RhlI/R QS systems previously used in synthetic cell communication[5],[7],[8]. To this end, we measured the fluorescence of BjaR receiver cells grown in the presence of their activators, 3OC6-HSL, 3OC12-HSL and C4-HSL, respectively (Supplementary Fig. 13a).
(§3) The BjaR reporter plasmids were retransformed into E. coli XL10-Gold cells for each experiment. A single colony was used to inoculate 5 ml LB + Amp media and incubated at 37 °C, 225 r.p.m. overnight. Overnight cultures were diluted 1/250 or 1/500 in 5 ml M9 minimal media + Amp and incubated at 37 °C, 225 r.p.m. for 3 h and 45 min (until OD600 = ~0.075). Cultures were diluted down to OD600 = 0.05 with M9 minimal media + Amp, and 200 µl was added to wells of a 96-well plate containing 1 µl IV-HSL dissolved in DMSO or 1 µl BjaI CFPS reactions (IV-HSL concentrations obtained from serial dilution from 63.2 µM to 632 pM; final DMSO concentration = 0.5%). Cells were incubated at 37 °C, 800 r.p.m., in a thermomixer with a heated lid for 4 h. Fluorescence and OD600 were measured in a Tecan M1000 infinite plate reader (excitation, 488 nm; emission, 510 nm; bandwidth, 5 nm; gain, 101 and z position, 21,311 µm). The dose–response curves were fitted to the function indicated by Eq. (1), where a = maximal fluorescence output, b = basal fluorescence output, X = concentration of AHSL, GFP = fluorescence at the given condition, EC50 = AHSL at 50% maximal fluorescence output and h = hill coefficient. EC50 and h were derived using the nonlinear regression model based on Eq. (1), in MATLAB. A summary of the dose–response data is available in Supplementary Table 1.1 GFP=b+a−b/1+10^logEC50−X×h

[2] = system: BjaRWT (B0033|ATG) receiver cells; assay: as above; type: cell-based, E. coli XL10-Gold; settings: for Mean normalised fluorescence / Normalised fluorescence / GFP: sheet 3e; for Normalised fluorescence / GFP: Expt1-3; for GFP: raw fluorescence ex 488/em 510 nm
Excerpt: as §1, §2, §3

[3] = system: pRhlI promoters (RhlR); parameters: method as in PMID 29992956; settings: cited from earlier work

In the case of CCCC(=O)CC(=O)N[C@H]1CCOC1=O [3OC6-HSL, N-(3-oxo-hexanoyl)-L-homoserine lactone], the “gfp expression in response to non-cognate AHSL” value [1] is reported as “minimal GFP was produced” and the “gfp expression in response to non-cognate AHSL” value [2] is reported as “did not express gfp; also recorded: minimal GFP was produced”.

With CCCCCCCCCC(=O)CC(=O)N[C@H]1CCOC1=O [3OC12-HSL] the “gfp expression in response to non-cognate AHSL” value [1] was “minimal GFP was produced” and the “gfp expression in response to non-cognate AHSL” value [2] was “did not express gfp; also recorded: minimal GFP was produced”.

With CCCC(=O)N[C@H]1CCOC1=O [C4-HSL, N-butyryl-L-homoserine lactone] the “sensitivity for IV-HSL over C4-HSL” value ([1]; C4-HSL vs IV-HSL) was about 126 fold, the “activation of receiver cells at maximal concentration tested” value ([2]; 0.36 µM) was “partially activated” and the “C4-HSL required relative to IV-HSL for the same fluorescence output (lower sensitivity)” value ([2]; C4-HSL vs IV-HSL) was about 126 ×. The “concentration required to fully activate expression from pRhlI promoters” value [3] was over 100 µM.

For CCCC(=O)N[C@H]1CCOC1=O [C4HSL], the Mean normalised fluorescence ([2]; Log([ASHL]) -6.5) was 89755.1, the Normalised fluorescence ([2]; Log([ASHL]) -6.5) was 87597.7 and 86111.2 and 95556.3 and the GFP ([2]; Log([ASHL]) -6.5) was 21193 and 21411 and 30615. The Mean normalised fluorescence ([2]; Log([ASHL]) -7) was 24851.4, the Normalised fluorescence ([2]; Log([ASHL]) -7) was 25795.6 and 21987 and 26771.5 and the GFP ([2]; Log([ASHL]) -7) was 6504 and 5697 and 8639. For the same molecule, the Mean normalised fluorescence ([2]; Log([ASHL]) -7.5) was 5633.53, the Normalised fluorescence ([2]; Log([ASHL]) -7.5) was 5943.36 and 4742.76 and 6214.47 and the GFP ([2]; Log([ASHL]) -7.5) was 1544 and 1323 and 2047. For the same molecule, the Mean normalised fluorescence ([2]; Log([ASHL]) -8) was 2030.88, the Normalised fluorescence ([2]; Log([ASHL]) -8) was 2169.85 and 1704.52 and 2218.28 and the GFP ([2]; Log([ASHL]) -8) was 628 and 544 and 810. The Mean normalised fluorescence ([2]; Log([ASHL]) -8.5) was 1297.09, the Normalised fluorescence ([2]; Log([ASHL]) -8.5) was 1166.04 and 1369.65 and 1355.57 and the GFP ([2]; Log([ASHL]) -8.5) was 416 and 558 and 438. For the same molecule, the Mean normalised fluorescence ([2]; Log([ASHL]) -9) was 1170.67, the Normalised fluorescence ([2]; Log([ASHL]) -9) was 1077.7 and 1245.14 and 1189.19 and the GFP ([2]; Log([ASHL]) -9) was 387 and 507 and 403. The Mean normalised fluorescence ([2]; Log([ASHL]) -9.5) was 1170.76, the Normalised fluorescence ([2]; Log([ASHL]) -9.5) was 1086.47 and 1200.78 and 1225.03 and the GFP ([2]; Log([ASHL]) -9.5) was 387 and 492 and 393. The Mean normalised fluorescence ([2]; Log([ASHL]) -10) was 1105.3, the Normalised fluorescence ([2]; Log([ASHL]) -10) was 1065.28 and 1106.75 and 1143.86 and the GFP ([2]; Log([ASHL]) -10) was 377 and 461. The Mean normalised fluorescence ([2]; Log([ASHL]) -10.5) was 1140.47, the Normalised fluorescence ([2]; Log([ASHL]) -10.5) was 1078 and 1145.04 and 1198.38 and the GFP ([2]; Log([ASHL]) -10.5) was 375 and 468 and 384. The Mean normalised fluorescence ([2]; Log([ASHL]) -11) was 1127.16, the Normalised fluorescence ([2]; Log([ASHL]) -11) was 1056.83 and 1148.2 and 1176.47 and the GFP ([2]; Log([ASHL]) -11) was 372 and 467 and 379. The Mean normalised fluorescence ([2]; Log([ASHL]) -11.5) was 1165.29, the Normalised fluorescence ([2]; Log([ASHL]) -11.5) was 1094.25 and 1223.38 and 1178.24 and the GFP ([2]; Log([ASHL]) -11.5) was 376 and 387 and 476.

For CCCCCC(=O)N[C@H]1CCOC1=O [C6HSL], the Mean normalised fluorescence ([2]; Log([ASHL]) -6.5) was 1368.65, the Normalised fluorescence ([2]; Log([ASHL]) -6.5) was 1655.84 and 1049.46 and 1400.63 and the GFP ([2]; Log([ASHL]) -6.5) was 525 and 399 and 567. For the same molecule, the Mean normalised fluorescence ([2]; Log([ASHL]) -7) was 1069.59, the Normalised fluorescence ([2]; Log([ASHL]) -7) was 1188.52 and 915.717 and 1104.54 and the GFP ([2]; Log([ASHL]) -7) was 407 and 365 and 478. For the same molecule, the Mean normalised fluorescence ([2]; Log([ASHL]) -7.5) was 1072.17, the Normalised fluorescence ([2]; Log([ASHL]) -7.5) was 1112.94 and 960.351 and 1143.21 and the GFP ([2]; Log([ASHL]) -7.5) was 387 and 361 and 491. For the same molecule, the Mean normalised fluorescence ([2]; Log([ASHL]) -8) was 1019.8, the Normalised fluorescence ([2]; Log([ASHL]) -8) was 1032.26 and 951.298 and 1075.83 and the GFP ([2]; Log([ASHL]) -8) was 373 and 371 and 472. The Mean normalised fluorescence ([2]; Log([ASHL]) -8.5) was 1002.73, the Normalised fluorescence ([2]; Log([ASHL]) -8.5) was 909.599 and 1094.09 and 1004.49 and the GFP ([2]; Log([ASHL]) -8.5) was 364 and 473 and 363. For the same molecule, the Mean normalised fluorescence ([2]; Log([ASHL]) -9) was 1027.01, the Normalised fluorescence ([2]; Log([ASHL]) -9) was 916.088 and 1080.14 and 1084.79 and the GFP ([2]; Log([ASHL]) -9) was 364 and 464 and 378. For the same molecule, the Mean normalised fluorescence ([2]; Log([ASHL]) -9.5) was 1017.95, the Normalised fluorescence ([2]; Log([ASHL]) -9.5) was 932.091 and 1057.66 and 1064.1 and the GFP ([2]; Log([ASHL]) -9.5) was 365 and 455 and 371. For the same molecule, the Mean normalised fluorescence ([2]; Log([ASHL]) -10) was 1072.17, the Normalised fluorescence ([2]; Log([ASHL]) -10) was 960.615 and 1126.04 and 1129.87 and the GFP ([2]; Log([ASHL]) -10) was 370 and 475 and 378. The Mean normalised fluorescence ([2]; Log([ASHL]) -10.5) was 1041.96, the Normalised fluorescence ([2]; Log([ASHL]) -10.5) was 969.437 and 1060.85 and 1095.6 and the GFP ([2]; Log([ASHL]) -10.5) was 369 and 456 and 376. The Mean normalised fluorescence ([2]; Log([ASHL]) -11) was 1037.02, the Normalised fluorescence ([2]; Log([ASHL]) -11) was 937.562 and 1077.9 and 1095.59 and the GFP ([2]; Log([ASHL]) -11) was 358 and 462 and 368. For the same molecule, the Mean normalised fluorescence ([2]; Log([ASHL]) -11.5) was 1058.71, the Normalised fluorescence ([2]; Log([ASHL]) -11.5) was 974.837 and 1085.17 and 1116.13 and the GFP ([2]; Log([ASHL]) -11.5) was 366 and 368 and 469.

For CCCCCCCCCCCC(=O)N[C@H]1CCOC1=O [C12-HSL], the Mean normalised fluorescence ([2]; Log([ASHL]) -6.5) was 3660.47, the Mean normalised fluorescence ([2]; Log([ASHL]) -7) was 1319.41 and the Normalised fluorescence ([2]; Log([ASHL]) -7) was 1877.08 and 986.388 and 1094.76. The GFP ([2]; Log([ASHL]) -7) was 569 and 370 and 480, the Mean normalised fluorescence ([2]; Log([ASHL]) -7.5) was 1262.26 and the Normalised fluorescence ([2]; Log([ASHL]) -7.5) was 1653.64 and 971.756 and 1161.39. The GFP ([2]; Log([ASHL]) -7.5) was 519 and 366 and 490, the Mean normalised fluorescence ([2]; Log([ASHL]) -8) was 1041.4 and the Normalised fluorescence ([2]; Log([ASHL]) -8) was 1139.61 and 918.045 and 1066.55. The GFP ([2]; Log([ASHL]) -8) was 388 and 367 and 474, the Mean normalised fluorescence ([2]; Log([ASHL]) -8.5) was 1040.51 and the Normalised fluorescence ([2]; Log([ASHL]) -8.5) was 943.135 and 1084.52 and 1093.88. The GFP ([2]; Log([ASHL]) -8.5) was 358 and 472 and 378, the Mean normalised fluorescence ([2]; Log([ASHL]) -9) was 1031.28 and the Normalised fluorescence ([2]; Log([ASHL]) -9) was 984.805 and 1073.68 and 1035.35. For the same molecule, the GFP ([2]; Log([ASHL]) -9) was 376 and 464 and 363, the Mean normalised fluorescence ([2]; Log([ASHL]) -9.5) was 1017.68 and the Normalised fluorescence ([2]; Log([ASHL]) -9.5) was 918.306 and 1057.93 and 1076.79. The GFP ([2]; Log([ASHL]) -9.5) was 351 and 459 and 368, the Mean normalised fluorescence ([2]; Log([ASHL]) -10) was 1062.17 and the Normalised fluorescence ([2]; Log([ASHL]) -10) was 938.8 and 1069.72 and 1178. The GFP ([2]; Log([ASHL]) -10) was 357 and 459 and 389, the Mean normalised fluorescence ([2]; Log([ASHL]) -10.5) was 1063.23 and the Normalised fluorescence ([2]; Log([ASHL]) -10.5) was 1055.63 and 1095.89 and 1038.16. For the same molecule, the GFP ([2]; Log([ASHL]) -10.5) was 379 and 459 and 370, the Mean normalised fluorescence ([2]; Log([ASHL]) -11) was 1104.13 and the Normalised fluorescence ([2]; Log([ASHL]) -11) was 961.19 and 1115.34 and 1235.86. The GFP ([2]; Log([ASHL]) -11) was 359 and 475 and 401, the Mean normalised fluorescence ([2]; Log([ASHL]) -11.5) was 1958.08 and the GFP ([2]; Log([ASHL]) -11.5) was 637 and 706 and 473.
